Measurements: patent publication US7994185B2, “Benzene sulfonamide thiazole and oxazole compounds” (Glaxo Smith Kline LLC, priority 2008, dated 2011)
Where two headings read alike, the source gives them in different places.

Key:
[1] = test system: Human colon tumor cells (Colo205); test: Cell growth inhibition assay (CellTiter-Glo), Colo205; format: cell-based
Outline: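 Luminescent ATP read-out (CellTiter-Glo) served as a proxy for cell number; percent growth inhibition was calculated against DMSO vehicle wells. Cells were treated for 3 days at 37 °C with serially diluted compound, 0.2% DMSO final.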

[2] = test system: Human melanoma cancer cells (SK-MEL-28); test: Cell growth inhibition assay (CellTiter-Glo), SK-MEL-28; format: cell-based
[3] = target: T1, BRAFV600E full-length (amino acids 2-766) (Homo sapiens, UniProt P15056, V600E); test: B-Raf Accelerated MEK ATPase assay (BRAMA); format: biochemical; conditions: categorized
T1 construct: His6-tagged BRAFV600E full-length (amino acids 2-766); His6; made in house; host or cells: baculovirus expression system (insect cells)
Outline: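 Coupled-enzyme readout: ADP generated by MEK-mediated ATP hydrolysis, uncoupled from ERK phosphorylation, is linked to NADH oxidation through pyruvate kinase and lactate dehydrogenase.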

[4] = COLO 205, 72 h, Table 2a, 3 days incubation, read-out: Activity in Colo205 Tumor Cells
[5] = COLO 205, Table 2b, later runs, average for the one or more runs, categorized, read-out: IC50 for Colo205
[6] = SK-MEL-28, 72 h, Table 3a, 3 days incubation, read-out: Activity in SK-MEL-28 Tumor Cells
[7] = SK-MEL-28, Table 3b, later runs, average for the one or more runs, categorized, read-out: IC50 for SK-MEL-28
[8] = B-Raf Activity, Table 1a, highest pIC50 for the one or more runs
[9] = B-Raf pIC50, Table 1b, later runs, average pIC50 for the one or more runs
[10] = Table 1b, later runs, average pIC50 for the one or more runs, read-out: B-Raf pIC50 (converted)

T1 sequence (P15056 2-766 V600E): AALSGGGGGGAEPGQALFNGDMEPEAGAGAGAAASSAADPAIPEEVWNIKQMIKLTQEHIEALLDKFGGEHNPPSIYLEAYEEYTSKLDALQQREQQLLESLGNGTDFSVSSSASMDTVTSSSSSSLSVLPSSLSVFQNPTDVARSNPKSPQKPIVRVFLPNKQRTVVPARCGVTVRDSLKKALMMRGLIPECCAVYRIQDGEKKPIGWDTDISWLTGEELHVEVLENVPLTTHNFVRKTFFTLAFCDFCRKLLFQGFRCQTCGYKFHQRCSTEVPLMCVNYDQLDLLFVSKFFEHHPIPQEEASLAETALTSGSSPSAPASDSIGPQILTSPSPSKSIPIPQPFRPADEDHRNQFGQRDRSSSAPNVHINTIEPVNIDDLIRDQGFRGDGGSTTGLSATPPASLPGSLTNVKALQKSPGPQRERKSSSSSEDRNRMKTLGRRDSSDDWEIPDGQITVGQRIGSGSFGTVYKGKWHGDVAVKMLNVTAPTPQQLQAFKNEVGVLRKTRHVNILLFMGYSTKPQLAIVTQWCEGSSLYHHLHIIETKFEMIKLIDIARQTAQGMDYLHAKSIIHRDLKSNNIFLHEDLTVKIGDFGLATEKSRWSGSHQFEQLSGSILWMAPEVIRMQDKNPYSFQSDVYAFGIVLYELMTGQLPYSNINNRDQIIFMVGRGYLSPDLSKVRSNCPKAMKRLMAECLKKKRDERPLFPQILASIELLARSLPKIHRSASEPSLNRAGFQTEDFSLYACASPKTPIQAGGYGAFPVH

Structure (SMILES) | IC50 [1, 4] [nM] | IC50 [1, 5] [nM] | IC50 [2, 6] [nM] | IC50 [2, 7] [nM] | IC50 [3, 8] [nM] | IC50 [3, 9] [nM] | IC50 [3, 10] [nM]
CC(C)(C)c1nc(-c2cccc(NS(=O)(=O)c3c(F)cccc3F)c2)c(-c2ccnc(NCCS(C)(=O)=O)n2)s1 [Example 2, N-{3-[2-(1,1-Dimethylethyl)-5-(2-{[2-(methylsulfonyl)ethyl]amino}-4-pyrimidinyl)-1,3-thiazol-4-yl]phenyl}-2,6-difluorobenzenesulfonamide] | < 100 | < 100 | < 100 | < 100 | < 100 | ≤ 3.16 | –
CC(C)(C)c1nc(-c2cccc(NS(=O)(=O)c3cc(F)ccc3F)c2F)c(-c2ccnc(NCCF)n2)s1 [Example 179] | < 100 | < 100 | < 100 | < 100 | < 100 | ≤ 3.16 | –
CC(=O)NCCNc1nccc(-c2sc(C(C)C)nc2-c2cccc(NS(=O)(=O)c3cc(F)ccc3F)c2F)n1 [Example 187] | < 100 | 1000 to 10000 | < 100 | < 100 | < 100 | ≤ 3.16 | –
CC(C)CNc1nccc(-c2sc(C(C)(C)C)nc2-c2cccc(NS(=O)(=O)c3cc(F)ccc3F)c2F)n1 [Example 92, N-[3-(2-(1,1-Dimethylethyl)-5-{2-[(2-methylpropyl)amino]-4-pyrimidinyl}-1,3-thiazol-4-yl)-2-fluorophenyl]-2,5-difluorobenzenesulfonamide] | < 100 | < 100 | < 100 | < 100 | < 100 | – | 3.16 to 31.6
CS(=O)(=O)N1CCC(Nc2nccc(-c3sc(C4CCOCC4)nc3-c3ccc(F)c(NS(=O)(=O)c4cc(F)ccc4F)c3)n2)CC1 [Example 70, 2,5-Difluoro-N-{2-fluoro-5-[5-(2-{[1-(methylsulfonyl)-4-piperidinyl]amino}-4-pyrimidinyl)-2-(tetrahydro-2H-pyran-4-yl)-1,3-thiazol-4-yl]phenyl}benzenesulfonamide] | 100 to 1000 | 100 to 1000 | 100 to 1000 | 100 to 1000 | < 100 | – | 3.16 to 31.6
Nc1nccc(-c2sc(N3CCS(=O)(=O)CC3)nc2-c2cccc(NS(=O)(=O)c3cc(F)ccc3F)c2F)n1 [Example 142] | < 100 | < 100 | < 100 | < 100 | < 100 | ≤ 3.16 | –
CC(C)c1nc(-c2cccc(NS(=O)(=O)c3cc(F)ccc3F)c2F)c(-c2ccnc(NCCCN3CCCC3=O)n2)s1 [Example 185] | < 100 | < 100 | < 100 | < 100 | < 100 | ≤ 3.16 | –
CC(C)(C)c1nc(-c2cccc(NS(=O)(=O)c3ccco3)c2F)c(-c2ccnc(N)n2)s1 [Example 231, N-{3-[5-(2-amino-4-pyrimidinyl)-2-(1,1-dimethylethyl)-1,3-thiazol-4-yl]-2-fluorophenyl}-2-furansulfonamide] | – | < 100 | – | < 100 | – | ≤ 3.16 | –
CC(C)c1nc(-c2cccc(NS(=O)(=O)c3cc(F)ccc3F)c2F)c(-c2ccnc(NCCCNC(=O)OC(C)(C)C)n2)s1 [Example 193] | 100 to 1000 | 100 to 1000 | 100 to 1000 | 100 to 1000 | < 100 | – | 3.16 to 31.6
CC(C)(C)c1nc(-c2cccc(NS(=O)(=O)c3cc(F)ccc3F)c2F)c(-c2ccnc(NCC3CCCO3)n2)s1 (stereo not drawn) [Example 213] | < 100 | < 100 | < 100 | < 100 | < 100 | ≤ 3.16 | –
CC(C)c1nc(-c2cccc(NS(=O)(=O)c3cccs3)c2)c(-c2ccnc(NCCS(C)(=O)=O)n2)s1 [Example 31, N-{3-[2-(1-Methylethyl)-5-(2-{[2-(methylsulfonyl)ethyl]amino}-4-pyrimidinyl)-1,3-thiazol-4-yl]phenyl}-2-thiophenesulfonamide] | < 100 | < 100 | < 100 | < 100 | < 100 | ≤ 3.16 | –
Nc1nccc(-c2sc(N3CCOCC3)nc2-c2cccc(NS(=O)(=O)c3c(F)cccc3F)c2Cl)n1 [Example 21, N-{3-[5-(2-Amino-4-pyrimidinyl)-2-(4-morpholinyl)-1,3-thiazol-4-yl]-2-chlorophenyl}-2,6-difluorobenzenesulfonamide] | 100 to 1000 | 100 to 1000 | 100 to 1000 | 100 to 1000 | < 100 | ≤ 3.16 | –
COCC(C)Nc1nccc(-c2sc(C(C)C)nc2-c2ccc(F)c(NS(=O)(=O)c3c(F)cccc3F)c2)n1 (stereo not drawn) [Example 162] | 100 to 1000 | 100 to 1000 | 100 to 1000 | 100 to 1000 | 100 to 1000 | 31.6 to 1000 | –
CC(C)(C)c1nc(-c2cccc(NS(=O)(=O)c3cc(F)ccc3F)c2F)c(-c2ccnc(CCS(C)(=O)=O)n2)s1 [Example 214] | < 100 | < 100 | < 100 | < 100 | < 100 | ≤ 3.16 | –
Nc1nccc(-c2sc(C3CCCCC3)nc2-c2cccc(NS(=O)(=O)c3cc(F)ccc3F)c2F)n1 [Example 144] | < 100 | < 100 | < 100 | < 100 | < 100 | ≤ 3.16 | –
CC(C)(C)c1nc(-c2cccc(NS(=O)(=O)c3cc(F)ccc3F)c2F)c(-c2ccnc(NCC(F)(F)F)n2)s1 [Example 94, N-[3-(2-(1,1-Dimethylethyl)-5-{2-[(2,2,2-trifluoroethyl)amino]-4-pyrimidinyl}-1,3-thiazol-4-yl)-2-fluorophenyl]-2,5-difluorobenzenesulfonamide] | 100 to 1000 | 100 to 1000 | 100 to 1000 | 100 to 1000 | < 100 | – | 3.16 to 31.6
Nc1nccc(-c2sc(C3CCOCC3)nc2-c2cccc(NS(=O)(=O)c3cnccn3)c2F)n1 [Example 280, N-{3-[5-(2-amino-4-pyrimidinyl)-2-(tetrahydro-2H-pyran-4-yl)-1,3-thiazol-4-yl]-2-fluorophenyl}-2-pyrazinesulfonamide] | – | 100 to 1000 | – | 100 to 1000 | – | ≤ 3.16 | –
CS(=O)(=O)N1CCN(c2nc(-c3cccc(NS(=O)(=O)c4c(F)cccc4F)c3F)c(-c3ccnc(N)n3)s2)CC1 [Example 100, N-(3-{5-(2-Amino-4-pyrimidinyl)-2-[4-(methylsulfonyl)-1-piperazinyl]-1,3-thiazol-4-yl}-2-fluorophenyl)-2,6-difluorobenzenesulfonamide] | 100 to 1000 | 100 to 1000 | 100 to 1000 | 100 to 1000 | < 100 | – | 3.16 to 31.6
CC(C)CNc1nccc(-c2sc(N3CCOCC3)nc2-c2cccc(NS(=O)(=O)c3cc(F)ccc3F)c2Cl)n1 [Example 22, N-{2-Chloro-3-[5-{2-[(2-methylpropyl)amino]-4-pyrimidinyl}-2-(4-morpholinyl)-1,3-thiazol-4-yl]phenyl}-2,5-difluorobenzenesulfonamide] | < 100 | < 100 | < 100 | < 100 | < 100 | – | 3.16 to 31.6
Nc1nccc(-c2sc(C3CCOCC3)nc2-c2ccc(F)c(NS(=O)(=O)c3cc(F)ccc3F)c2)n1 [Example 68, N-{5-[5-(2-Amino-4-pyrimidinyl)-2-(tetrahydro-2H-pyran-4-yl)-1,3-thiazol-4-yl]-2-fluorophenyl}-2,5-difluorobenzenesulfonamide] | > 1000 | 1000 to 10000 | > 1000 | 1000 to 10000 | 100 to 1000 | 31.6 to 1000 | –
CC(C)c1nc(-c2cccc(NS(=O)(=O)c3cc(F)ccc3F)c2F)c(-c2ccnc(NCCNC(=O)OC(C)(C)C)n2)s1 [Example 189] | < 100 | < 100 | < 100 | < 100 | < 100 | ≤ 3.16 | –
Cc1nccc(-c2sc(C(C)(C)C)nc2-c2cccc(NS(=O)(=O)c3ccco3)c2Cl)n1 [Example 263, N-{2-chloro-3-[2-(1,1-dimethylethyl)-5-(2-methyl-4-pyrimidinyl)-1,3-thiazol-4-yl]phenyl}-2-furansulfonamide] | – | 100 to 1000 | – | 100 to 1000 | – | ≤ 3.16 | –
CS(=O)(=O)N1CCC(Nc2nccc(-c3sc(N4CCOCC4)nc3-c3cccc(NS(=O)(=O)c4c(F)cccc4F)c3F)n2)CC1 [Example 79, 2,6-Difluoro-N-{2-fluoro-3-[5-(2-{[1-(methylsulfonyl)-4-piperidinyl]amino}-4-pyrimidinyl)-2-(4-morpholinyl)-1,3-thiazol-4-yl]phenyl}benzenesulfonamide] | < 100 | < 100 | < 100 | < 100 | < 100 | ≤ 3.16 | –
CC(C)CNc1nccc(-c2sc(C3CCOCC3)nc2-c2cccc(NS(=O)(=O)c3c(F)cccc3F)c2Cl)n1 [Example 18, N-{2-Chloro-3-[5-{2-[(2-methylpropyl)amino]-4-pyrimidinyl}-2-(tetrahydro-2H-pyran-4-yl)-1,3-thiazol-4-yl]phenyl}-2,6-difluorobenzenesulfonamide] | < 100 | < 100 | < 100 | < 100 | < 100 | ≤ 3.16 | –
